Data on three compounds can be found in patent US6713077B1, “Control of shoot/foliar feeding pests with pesticide seed treatments” (Monsanto Technology, LLC, priority 1999, dated 2004).

Series [1] relates to black cutworm larvae. The series is described as follows: Example 5: stand reduction of corn by black cutworm, lambda cyhalothrin or tefluthrin seed treatment. The class given is in vivo. As to conditions: band w/ incorporation 30 (grams/hectare). As to the method: A lambda-cyhalothrin seed treatment formulation was prepared from the WARRIOR T insecticide and corn seed was prepared and treated as described in Example 1, except that the treatment levels were 125, 228 and 358 gm active ingredient/100 kg seed. A tefluthrin seed treatment formulation was also prepared from RAZE 2.5 FS, which contains tefluthrin as the active ingredient, into water as a carrier. Treated and untreated seeds were planted and cultivated as described as described in Example 1. Again, FORCE 3GR was applied and incorporated into a 5 inch band on the soil surface at the time of planting. The tubs were overhead irrigated until the plants were infested with black cutworm larvae.
(§1) The corn plants were infested at 12 DAP, as described in Example 1. Plants were rated at 10 days after infestation (DAI) for the number of cut plants. The percent stand reduction due to plant cutting was calculated by dividing the number of cut plants into the number of plants present at infestation.

For series [2], the system named is black cutworm larvae. Nature of the series: Example 8: stand reduction of corn by black cutworm, RAZE versus WARRIOR T seed treatment. The class given is in vivo. Conditions: band w/ incorporation 30 (grams/hectare). The method, then:
A lambda-cyhalothrin seed treatment formulation was prepared from WARRIOR T 11.4 CS formulation (Zeneca Ag Products, Wilmington, Del.), as described in Example 1. Also, a tefluthrin seed treatment formulation was prepared from RAZE […] formulation (available from Wilbur-Ellis Co.), by the same method. Each of these seed treatment formulations were applied for one minute at room temperature to twenty-five grams of Pioneer corn seed (Cultivar PN3394) in a rotostatic seed treater at the treatment rates noted in Table 9, below. The treated seeds were allowed to sit uncapped for four to twenty-four hours before planting.
Treated and untreated seeds (Pioneer hybrid PN3394) were planted in a soil mix consisting of Dupo silt loam, 30% Perlite, 20% coarse sand (WB-10 grade) in six groups of tubs (20 in. L×15 in. W×8 in. D). Twelve seeds were planted per tub and three tubs were planted for each treatment regimen. Soil applications of FORCE 3GR, which contains 3% tefluthrin as the active ingredient, were used for two sets of tubs containing untreated seeds. […]
(§2) The corn plants were infested at 12 DAP, which corresponds to late growth stage 11 by placing two black cutworm larvae at 3/4 instar on the soil surface near the base of the plant. […] The percent stand reduction due to plant cutting was calculated by dividing the number of cut plants into the number of plants present at infestation.

For series [3] the following is noted: cited from earlier work.
For series [4], the system named is black cutworm larvae. The series is described as follows: Example 7: stand reduction of corn by black cutworm, bifenthrin, lambda-cyhalothrin and tefluthrin seed treatment. The class given is in vivo. Conditions: seed treatment 209 gm AI/100 kg of seed. The method, then:
A lambda-cyhalothrin seed treatment formulation was prepared from WARRIOR T 11.4 CS formulation (Zeneca Ag Products, Wilmington, Del.), as described in Example 1. A seed treatment formulation was also prepared by the method as described in Example 1, except from CAPTURE® 2 EC (bifenthrin; available from FMC). Also, a seed treatment formulation was prepared from RAZE 2.5 FS formulation (available from Wilbur-Ellis Co.), containing 26.8% tefluthrin. Each of these seed treatment formulations were applied for one minute at room temperature to twenty-five grams of Pioneer corn seed (Cultivar PN3394) in a rotostatic seed treater at the treatment rates noted in Table 8, below. The treated seeds were allowed to sit uncapped for four to twenty-four hours before planting.
Treated and untreated seeds (Pioneer hybrid PN3394) were planted in a soil mix consisting of Dupo silt loam, 30% Perlite, 20% coarse sand (WB-10 grade) in six groups of tubs (20 in. L×15 in. W×8 in. D). Twelve seeds were planted per tub and three tubs were planted for each treatment regimen. […]
as §2

For series [5] the following is noted: temperature not given; cited from earlier work.
Series [6] deals with black cutworm larvae. Nature of the series: Example 2: stand reduction of corn by black cutworm, tub test. The class given is in vivo. The method, then: (§3) A lambda-cyhalothrin seed treatment formulation was prepared from the WARRIOR T insecticide and corn seed was prepared and treated as described in Example 1, except that the treatment levels were 88, 185 and 381 gm active ingredient/100 kg seed. Treated and untreated seeds were planted and cultivated as described as described in Example 1. Again, FORCE 3GR was applied either in-furrow or incorporated into a 5 inch band on the soil surface at the time of planting. The tubs were overhead irrigated until the plants were infested with black cutworm larvae.
as §1

Series [7] deals with black cutworm larvae. The series is described as follows: Example 4: stand reduction of corn by black cutworm in three soil types. Type of series: in vivo. Conditions: seed treatment 250 gm AI/100 kg of seed. As to the method:
as §3, with “from” for “from the”, “level was 250” for “levels were 88, 185 and 381”, “1.” for “1. Again,”, “and” for “either in-furrow or”, “The untreated seed—with and without tefluthrin banding—and the treated seed were planted in three different soil types. […] The” for “The”
as §1

Like-named read-outs stand apart in the source and are kept apart here.

Regarding `Cc1c(F)c(F)c(COC(=O)[C@@H]2[C@H](/C=C(\Cl)C(F)(F)F)C2(C)C)c(F)c1F` (racemic) [Tefluthrin, (2,3,5,6-tetrafluoro-4-methylphenyl)-methyl-(1 alpha, 3 alpha)-(Z)-(±)-3-(2-chloro-3,3,3-trifluoro-1-propenyl)-2,2-dimethylcyclopropanecarboxylate], the “STAND REDUCTION (%, 10 days after infestation)” value with black cutworm larvae [1] and with black cutworm larvae [2] was “total protection” each time. Also, the Vapor pressure in series [3] (20° C.) is 8 mPa.
For the compound `Cc1c(COC(=O)C2C(C=C(Cl)C(F)(F)F)C2(C)C)cccc1-c1ccccc1` (stereo not drawn) [Bifenthrin, (2-methyl [1,1′-biphenyl]-3-yl)methyl 3-(2-chloro-3,3,3-trifluoro-1-propenyl)-2,2-dimethyl-cyclopropanecarboxylate], the “STAND REDUCTION (%, 10 days after infestation)” value with black cutworm larvae [4] is “total protection”. Moreover, the Water solubility in series [5] was 0.1 µg/mL. Also, the Vapor pressure in series [3] (25° C.) is given as 0.024 mPa.
Consider `CC1(C)[C@H](C(=O)O[C@H](C#N)c2cccc(Oc3ccccc3)c2)[C@@H]1/C=C(\Cl)C(F)(F)F` [Lambda cyhalothrin, [1 alpha (s), 3 alpha(z)]-cyano(3-phenoxyphenyl)methyl-3-(2-chloro-3,3,3-trifluoro-1-propenyl)-2,2-dimethylcyclopropane carboxylate], for which the “STAND REDUCTION (%, 10 days after infestation)” value in the series on black cutworm larvae [6] (seed treatment 88 gm AI/100 kg of seed) is recorded as 19.4%; in the series on black cutworm larvae [6] (seed treatment 381 gm AI/100 kg of seed), “total protection”; with black cutworm larvae [7] (SOIL TYPE I), 80.1%; in the series with black cutworm larvae [7] (SOIL TYPE II) it was 39.8%; in the series with black cutworm larvae [7] (SOIL TYPE III), 72.4%. The Vapor pressure in series [3] (temperature not given) is 2 E-4 mPa.
